SMILES strings stand for the structures. A value given as a limit tells only on which side of the number the result lay.

Consider 15 compounds from patent publication US11332470B2, “CXCR4 inhibitors and uses thereof” (X4 Pharmaceuticals, Inc., priority 2016, dated 2022).

Series [1] can be described thus: in vitro. Particulars: human, Caco-2, pH 7.4. In outline: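 Compound at 10 μM in HBSS pH 7.4 dosed A-to-B and B-to-A across Caco-2 monolayers, 90 min at 37 °C, duplicates. Monolayer integrity by TEER and lucifer yellow (5 μM, fluorescence 485/535 nm); compound quantified by LC-MS/MS.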
Series [2] deals with T1, CXCR4 (U87.CXCR4 cells) (Homo sapiens, UniProt P61073).
T1 construct: expressed in transfected cells; host or cells: U87 (U87.CXCR4)
Nature of the series: Intracellular CXCL-12-induced calcium mobilization assay (FLIPR). The series is classed as cell-based. Particulars: CXCL-12 25-50 ng/mL, read-out: IC50 CXCL-12 Ca2+ flux U87.CXCR4+. In outline:
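U87.CXCR4 cells were loaded with 4 μM Fluo-2 AM for 45 min at 37 °C in HBSS/20 mM HEPES/0.2% BSA, pH 7.4. Calcium flux induced by CXCL-12 (25-50 ng/mL) was monitored kinetically by FLIPR fluorescence at 37 °C.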
(Calcium flux is commonly read through the fluorescence of an indicator in the cells.)

Series [3] has as its target T2, CXCR4 (Jurkat cells expressing CXCR4) (Homo sapiens, UniProt P61073).
T2 construct: Jurkat cells expressing CXCR4; endogenous in cells; host or cells: Jurkat
As to the kind of experiment: Chemokine (CXCL12-AF647) binding inhibition assay. Particulars: CXCL12-AF647 25 ng/mL, read-out: IC50 CXCL-12 binding Jurkat. In outline:
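Cells in HBSS, 20 mM HEPES, 0.2% BSA, pH 7.4, preincubated 15 min at room temperature with compound, then 25 ng/mL CXCL12-AF647 for 30 min. After washing and paraformaldehyde fixation, bound ligand read by flow cytometry; percent inhibition calculated from MFI relative to unlabeled and ligand-only controls.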

T2 sequence (P61073 whole entry): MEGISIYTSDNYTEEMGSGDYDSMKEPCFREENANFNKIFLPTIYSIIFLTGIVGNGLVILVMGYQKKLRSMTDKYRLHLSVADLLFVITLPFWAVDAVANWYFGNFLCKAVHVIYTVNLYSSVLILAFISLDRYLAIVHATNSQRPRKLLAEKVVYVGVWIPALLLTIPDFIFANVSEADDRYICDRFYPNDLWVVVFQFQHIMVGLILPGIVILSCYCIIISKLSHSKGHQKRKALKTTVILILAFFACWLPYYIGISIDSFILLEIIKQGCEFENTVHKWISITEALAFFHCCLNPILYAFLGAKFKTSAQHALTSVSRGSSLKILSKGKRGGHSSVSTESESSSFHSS
T1 sequence (P61073 whole entry): as above

The term Papp A→B denotes how fast a substance crosses the layer from the apical side. A low value points to poor permeation. As usually defined, the Papp B→A is how fast a substance crosses the layer from the basolateral side. By efflux ratio is commonly meant a quotient of directional permeabilities that is used to spot active efflux. The term IC50 denotes the concentration needed to halve the response being measured. For `CN1CCN(c2c(CN3CCCC3c3ncccc3F)nc3ccccn23)CC1` (stereo not drawn) [Compound I-60], in series [1], the Papp A→B at 90 min, 10 μM was in the range of 10 to 30 ×10⁻⁶ cm/s; the Papp B→A at 90 min, 10 μM fell in the range of 10 to 30 ×10⁻⁶ cm/s; the efflux ratio at 90 min, 10 μM lay within 0.1 to 10. In series [2], the IC50 was 0.01 to 100 nM. In series [3], the IC50 lay within 0.01 to 100 nM.

Regarding `CN1CCN(c2c(CN3CCCC3c3ccccn3)nc3c(F)cccn23)CC1` (stereo not drawn) [Compound I-61], in series [1], the Papp A→B at 90 min, 10 μM was in the range of 10 to 30 ×10⁻⁶ cm/s; the Papp B→A at 90 min, 10 μM lay in the range of 10 to 30 ×10⁻⁶ cm/s; the efflux ratio at 90 min, 10 μM lay in the range of 0.1 to 10. Further, the IC50 in series [2] was in the range of 100 to 1000 nM. In addition, the IC50 in series [3] lay within 0.01 to 100 nM.

Regarding `CN1CCN(c2c(CN3CCCC3c3ccccn3)nc3cc(F)ccn23)CC1` (stereo not drawn) [Compound I-62], in series [1], the Papp A→B at 90 min, 10 μM was in the range of 0.1 to 10 ×10⁻⁶ cm/s; the Papp B→A at 90 min, 10 μM lay within 10 to 30 ×10⁻⁶ cm/s; the efflux ratio at 90 min, 10 μM was 0.1 to 10. The IC50 in series [2] was 0.01 to 100 nM. Further, in series [3], the IC50 lay in the range of 0.01 to 100 nM.

For the compound `CN1CCN(c2c(CN3CCCC3c3ccccn3)nc3cccc(F)n23)CC1` (stereo not drawn) [Compound I-64], in series [1], the apical-to-basolateral permeability (Papp A→B) at 90 min, 10 μM lay in the range of 0.1 to 10 ×10⁻⁶ cm/s; the Papp B→A at 90 min, 10 μM lay within 10 to 30 ×10⁻⁶ cm/s; the efflux ratio at 90 min, 10 μM is 0.1 to 10. In series [2], the IC50 is 100 to 1000 nM. Also, the IC50 in series [3] is 0.01 to 100 nM.

On to `c1ccc(C2CCCN2Cc2ccccc2-n2cccn2)nc1` (stereo not drawn) [Compound I-65], for which, in series [1], the apparent permeability from apical to basolateral (Papp A→B) at 90 min, 10 μM was greater than 30 ×10⁻⁶ cm/s; the Papp B→A at 90 min, 10 μM was greater than 30 ×10⁻⁶ cm/s; the efflux ratio at 90 min, 10 μM lay within 0.1 to 10. Moreover, the IC50 in series [2] is no less than 1000 nM. The IC50 in series [3] lay within 100 to 1000 nM.

`CN1CCN(c2c(CN3CCCC3c3ncc[nH]3)nc3ccccn23)CC1` (stereo not drawn) [Compound I-68]: in series [1], the Papp A→B at 90 min, 10 μM was in the range of 0.1 to 10 ×10⁻⁶ cm/s; the Papp B→A at 90 min, 10 μM lay in the range of 10 to 30 ×10⁻⁶ cm/s; the efflux ratio at 90 min, 10 μM lay in the range of 0.1 to 10. The IC50 in series [2] is no less than 1000 nM. The IC50 in series [3] lay within 100 to 1000 nM.

Take `CN1CCN(c2c(CN3CCCC3c3nccn3C)nc3ccccn23)CC1` (stereo not drawn) [Compound I-69]: in series [1], the Papp A→B at 90 min, 10 μM fell in the range of 0.1 to 10 ×10⁻⁶ cm/s; the Papp B→A at 90 min, 10 μM lay within 10 to 30 ×10⁻⁶ cm/s; the efflux ratio at 90 min, 10 μM is 10 to 30. Besides, the IC50 in series [2] was 0.01 to 100 nM. Besides, the 50% inhibitory concentration (IC50) in series [3] is 0.01 to 100 nM.

For `c1ccc(C2CCCN2Cc2ncccc2-n2ccnc2)nc1` (stereo not drawn) [Compound I-75], in series [1], the Papp A→B at 90 min, 10 μM was in the range of 10 to 30 ×10⁻⁶ cm/s; the Papp B→A at 90 min, 10 μM is greater than 30 ×10⁻⁶ cm/s; the efflux ratio at 90 min, 10 μM lay within 0.1 to 10. For the same compound, the IC50 in series [2] was no less than 1000 nM. Further, in series [3], the IC50 fell in the range of 100 to 1000 nM.

With `CN1CCN(c2c(CN3CCCC3c3ccc(F)cn3)nc3ccccn23)CC1` (stereo not drawn) [Compound I-76], in series [1], the Papp A→B at 90 min, 10 μM was 10 to 30 ×10⁻⁶ cm/s; the Papp B→A at 90 min, 10 μM was in the range of 0.1 to 10 ×10⁻⁶ cm/s; the efflux ratio at 90 min, 10 μM lay in the range of 0.1 to 10. For the same compound, in series [2], the IC50 is 0.01 to 100 nM. Besides, in series [3], the IC50 lay within 0.01 to 100 nM.

On to `CN1CC=C(c2c(CN3CCCC3c3ccccn3)nc3ccccn23)CC1` (stereo not drawn) [Compound I-79], for which, in series [1], the Papp A→B at 90 min, 10 μM lay within 0.1 to 10 ×10⁻⁶ cm/s; the Papp B→A at 90 min, 10 μM was greater than 30 ×10⁻⁶ cm/s; the efflux ratio at 90 min, 10 μM was 0.1 to 10. Besides, the IC50 in series [2] fell in the range of 0.01 to 100 nM. Besides, the IC50 in series [3] is 0.01 to 100 nM.

Consider `c1ccc(C2CCCN2Cc2nc3ccccn3c2-c2ccncc2)nc1` (stereo not drawn) [Compound I-80], for which, in series [1], the Papp A→B at 90 min, 10 μM is 10 to 30 ×10⁻⁶ cm/s; the Papp B→A at 90 min, 10 μM was greater than 30 ×10⁻⁶ cm/s; the efflux ratio at 90 min, 10 μM was in the range of 0.1 to 10. Moreover, the IC50 in series [2] was in the range of 100 to 1000 nM. The IC50 in series [3] fell in the range of 100 to 1000 nM.

Consider `N#CCCc1c(CN2CCCC2c2ccccn2)nc2ccccn12` (stereo not drawn) [Compound I-82], for which, in series [1], the Papp A→B at 90 min, 10 μM was 10 to 30 ×10⁻⁶ cm/s; the Papp B→A at 90 min, 10 μM is greater than 30 ×10⁻⁶ cm/s; the efflux ratio at 90 min, 10 μM was 0.1 to 10. Also, the IC50 in series [2] is no less than 1000 nM. The IC50 in series [3] is 100 to 1000 nM.

As to `Cc1cccnc1C1CCCN1Cc1cn2c(CCC#N)cccc2n1` (stereo not drawn) [Compound I-83], in series [1], the Papp A→B at 90 min, 10 μM lay within 0.1 to 10 ×10⁻⁶ cm/s; the Papp B→A at 90 min, 10 μM was greater than 30 ×10⁻⁶ cm/s; the efflux ratio at 90 min, 10 μM is 0.1 to 10. Moreover, the IC50 in series [2] is no less than 1000 nM. Further, in series [3], the IC50 lay in the range of 100 to 1000 nM.

Turning to `N#CCCc1cccc2nc(CN3CCCC3c3ccccn3)cn12` (stereo not drawn) [Compound I-84], in series [1], the Papp A→B at 90 min, 10 μM was in the range of 0.1 to 10 ×10⁻⁶ cm/s; the Papp B→A at 90 min, 10 μM is greater than 30 ×10⁻⁶ cm/s; the efflux ratio at 90 min, 10 μM was in the range of 0.1 to 10. Further, the IC50 in series [2] is no less than 1000 nM. For the same compound, the IC50 in series [3] is no less than 1000 nM.

Regarding `CN1CCN(c2c(CN3CCCC3c3ccccn3)nc3ccccn23)CC1=O` (stereo not drawn) [Compound I-85], in series [1], the Papp A→B at 90 min, 10 μM lay in the range of 0.1 to 10 ×10⁻⁶ cm/s; the Papp B→A at 90 min, 10 μM was greater than 30 ×10⁻⁶ cm/s; the efflux ratio at 90 min, 10 μM fell in the range of 0.1 to 10. The IC50 in series [2] was no less than 1000 nM. Further, the IC50 in series [3] lay within 100 to 1000 nM.
